Source: US9206136B2, “Pyrazolyl-based carboxamides I” (Grünenthal GmbH, priority 2013, dated 2015)

Assays:
[1] = tested on: Interleukin-2 (IL-2) production/release in Jurkat T cell line clone E6-1; assay: Jurkat IL-2 Production Assay; format: cell-based; conditions: Homo sapiens; Jurkat T cells stimulated with 15 μg/ml PHA for 22 hours; IL-2 in supernatant (AlphaLisa)
Experimental: Jurkat IL-2 Production Assay
The effect of compounds of the invention on Interleukin-2 (IL-2) production/release was tested in the Jurkat T cell line (ECACC) clone E6-1.
Jurkat T cells were cultured in DMEM/F12/Glutamax (Gibco) containing 10% FCS (Gibco), and maintained at 37° C., 5% CO2. Cells were split twice a week [5·10^6 (Mon-Thu) and 1·10^7 (Thu-Mon) cells/50 ml medium in T-175 ZK culture flasks, respectively].
Prior to experiment, cells were seeded on 96 well plates (Cellstar 96 Well; Cat No. 655180, Greiner bio-one) at a density of 5·10^5 cells/well in DMEM/F12/Glutamax (Gibco) containing 10% FCS (Gibco), and incubated for 60 min at 37° C., 5% CO2. Subsequently, compounds were added and cells were allowed to incubate for 30 min at 37° C., 5% CO2. Cells were then stimulated with 15 μg/ml Phyto-hemagglutinin (PHA; Sigma) for 22 hours at 37° C., 5% CO2.
Before sampling of the supernatants, cells were spun down (200*g/5 min/RT). The amount of IL-2 released into the supernatant was quantified with the human IL-2 AlphaLisa kit (Perkin Elmer) according to manufacturer's instructions. Luminescence proximity measurements were carried out in the Synergy H4 reader (BioTek) employing the fluorescence setting of the reader (ex: 680/30 nm; em: 620/40 nm).
Inhibition of IL-Production/Release in/from Jurkat T Cells Cells was Quantified as Follows:
Zero percent inhibition (MAX) was defined as the [IL-2] determined in supernatants derived from cells to which PHA & DMSO-only had been added instead of compound. Hundred percent inhibition (MIN) was defined as the [IL-2] determined in supernatants derived from cells that had been pre-treated with 1 μM CyclosporineA (Sigma) before the addition of 15 μg/ml PHA.
For routine IC50 determinations of compounds, 8 concentrations of a serial dilution (1:3.16) were tested, starting off from 10 μM.

[2] = biological target: T1, CRAC channel (endogenous SOC in HEK293 cells) (Homo sapiens, UniProt Q96D31); assay: HEK Calcium Influx Assay (FLIPR); format: cell-based; conditions: 10 μM compound, thapsigargin store depletion, Ca2+ signal 9.5-10 min post-administration, read-out: % inhib. [@ 10 μM] FLIPR
T1 construct: host or cells: HEK293
T1 sequence (Q96D31 whole entry): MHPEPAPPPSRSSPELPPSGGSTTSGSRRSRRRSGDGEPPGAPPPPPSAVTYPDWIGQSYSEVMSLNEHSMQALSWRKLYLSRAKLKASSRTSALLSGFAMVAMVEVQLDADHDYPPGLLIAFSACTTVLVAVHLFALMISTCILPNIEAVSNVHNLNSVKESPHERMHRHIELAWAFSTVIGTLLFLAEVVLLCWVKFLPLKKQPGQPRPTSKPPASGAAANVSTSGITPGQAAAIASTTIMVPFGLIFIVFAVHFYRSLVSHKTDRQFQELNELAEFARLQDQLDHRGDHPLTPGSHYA
Experimental: Compounds of the invention have been tested for their effects on CRAC channels according to the following or similar procedures.
The effect of compounds of the invention on intracellular [Ca^2+] was tested in the HEK293 cell line (ECACC).
HEK293 cells were cultured in DMEM/F12/Glutamax (Gibco) containing 10% FCS (Gibco), and maintained at 37° C., 5% CO2. Cell were split twice a week [3·10^6 (Mon-Thu) and 1·10^6 (Thu-Mon) cells/50 ml medium in T-175 ZK culture flasks, respectively]. 24 hours pre-experiment, cells were seeded on 96 well plates (Poly-D-Lysine 96well Black/Clear Plate, BD Biocoat REF 356640) at a density of 40,000 cells/well in DMEM/F12 (Gibco) containing 10% FCS (Gibco), and maintained at 37° C., 5% CO2.
Prior to store-depletion, cell culture medium was removed and cells were loaded with the a Ca^2+-sensitive fluorescent dye comprised within the Calcium-4-assay kit (Molecular Devices) in nominally Ca^2+-free HBS buffer (140 mM NaCl, 4 mM KCl, 0.2 mM MgCl2, 11 mM D-glucose, and 10 mM HEPES, pH 7.4) according to manufacturer's instruction for 60 min at 37° C., 5% CO2.
Passive depletion of intracellular Ca^2+-stores was then triggered by employing the SERCA inhibitor thapsigargin (2 μM final) for 10 min in the dark (rt). To prevent immediate Ca^2+-entry via the activated Store-operated channels (SOCs), cells were maintained in Ca^2+-free HBS buffer comprising 100 μM EGTA during store-depletion.
Intracellular changes in [Ca^2+] were subsequently monitored with the FLIPR device (Molecular Devices). In brief, baseline imaging post-store depletion was allowed for 1 min before adjusting the extracellular buffer to 3 mM CaCl2. Increases in intracellular [Ca^2+] due to pre-activated SOC channels were monitored for 15 min until intracellular Ca^2+ levels had declined into a steady-state. Finally, compounds were administered and Ca^2+ signals were recorded for additional 10 min.
Inhibition of endogenous SOC in HEK293 cells was quantified employing the average Ca^2+ signal measured from 9.5-10 min post-administration. Zero percent inhibition (MAX) was defined as the Ca^2+ signal recorded from wells to which DMSO-only had been added instead of compound. Hundred percent inhibition (MIN) was defined as the signal obtained from wells in which cells haven't been treated with TG prior to Ca^2+ addition and to which DMSO-only had been added instead of compound. For routine IC50 determinations of compounds, 8 concentrations of a serial dilution (1:3.16) were tested, starting off from 10 μM. Reliable IC50's could consequently be determined only, if they were at least sub 2.5-3 μM.

Row | SMILES | IC50 [1] [µM] | inhibition at 10 µM [2] [%]
1 | COc1ccc(-c2nccs2)cc1-c1c(N)c(C(=O)Nc2c(F)cccc2F)nn1C [Example 44, 4-Amino-N-(2,6-difluoro-phenyl)-5-(2-methoxy-5-thiazol-2-yl-phenyl)-1-methyl-1H-pyrazole-3-carboxylic acid amide] | 1 to 5 | < 50
2 | COc1ccc(-c2ncco2)cc1-c1c(N)c(C(=O)Nc2c(F)cncc2F)nn1C [Example 45, 4-amino-N-(3,5-difluoropyridin-4-yl)-5-(2-methoxy-5-(oxazol-2-yl)phenyl)-1-methyl-1H-pyrazole-3-carboxamide] | 1 to 5 | < 50
3 | COc1ccc(-c2ncco2)cc1-c1c(N)c(C(=O)Nc2c(F)cccc2F)nn1C [Example 46, 4-amino-N-(2,6-difluorophenyl)-5-(2-methoxy-5-(oxazol-2-yl)phenyl)-1-methyl-1H-pyrazole-3-carboxamide] | 1 to 5 | < 50
4 | COc1ccc(-c2nccs2)cc1-c1c(N)c(C(=O)Nc2c(F)cncc2F)nn1C [Example 47, 4-amino-N-(3,5-difluoropyridin-4-yl)-5-(2-methoxy-5-(thiazol-2-yl)phenyl)-1-methyl-1H-pyrazole-3-carboxamide] | 1 to 5 | < 50
5 | COc1ccc(C2=NOC(C)(C)C2=O)cc1-c1cc(C(=O)Nc2c(F)cccc2F)nn1C [Example 48] | 0.5 to 1 | < 50
6 | Cn1nc(C(=O)Nc2c(F)cccc2F)c(N)c1-c1cc(-c2ncco2)ccc1OC(F)(F)F [Example 49, 4-amino-N-(2,6-difluorophenyl)-1-methyl-5-(5-(oxazol-2-yl)-2-(trifluoromethoxy)phenyl)-1H-pyrazole-3-carboxamide] | 0.5 to 1 | 50 to 70
7 | Cn1nc(C(=O)Nc2c(F)cncc2F)c(N)c1-c1cc(-c2ncco2)ccc1OC(F)(F)F [Example 50, 4-amino-N-(3,5-difluoropyridin-4-yl)-1-methyl-5-(5-(oxazol-2-yl)-2-(trifluoromethoxy)phenyl)-1H-pyrazole-3-carboxamide] | 1 to 5 | < 50
